Reference: PMC6272579, “A Three-Enzyme-System to Degrade Curcumin to Natural Vanillin” (Molecules, 2015)

Molecular target: T1, CAL (Moesziomyces antarcticus, UniProt P41365)
T1 construct: immobilised commercial lipase Novozyme_435 (known to be lipase B)
T1 sequence (P41365 26-342): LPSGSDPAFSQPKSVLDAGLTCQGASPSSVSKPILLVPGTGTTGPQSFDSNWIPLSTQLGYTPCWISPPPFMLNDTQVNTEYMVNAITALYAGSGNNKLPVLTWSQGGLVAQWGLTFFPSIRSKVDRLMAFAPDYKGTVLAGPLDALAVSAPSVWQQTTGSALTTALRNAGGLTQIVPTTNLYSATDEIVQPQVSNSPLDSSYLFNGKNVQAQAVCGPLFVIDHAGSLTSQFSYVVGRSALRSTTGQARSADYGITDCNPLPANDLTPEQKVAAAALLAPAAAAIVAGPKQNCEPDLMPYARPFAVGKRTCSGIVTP
Test: lipase-catalysed acetylation, LC-MS
Assay type: biochemical
Conditions: immobilised enzyme; ethyl acetate/toluene 10:90, 4% acetate buffer pH 6, 40 °C; acyl donor geranyl acetate 1:50; acyl donor to curcumin

SMILES: CC(=O)OC/C=C(\C)CCC=C(C)C [geranyl acetate]
- lipase-catalysed acetylation, LC-MS: using geranyl acetate as the acyl donor
